Measurements taken from ChEMBL document CHEMBL4602695, “Discovery and SARs of 5-Chloro-N4-phenyl-N2-(pyridin-2-yl)pyrimidine-2,4-diamine Derivatives as Oral Available and Dual CDK 6 and 9 Inhibitors with Potent Antitumor Activity” (J Med Chem, 2020).
≈ marks a conversion by molar mass, not a printed value.

How the values were obtained:
CDK6/cyclin D3 [1] = target: T1, CDK6/cyclin D3 (Homo sapiens, UniProt Q00534); set-up: species or system Sf9
CDK2/Cyclin A2 = CDK2/Cyclin A2 (Homo sapiens, UniProt P24941); set-up: species or system Sf9
MDA-MB-231 [2] = test: Antiproliferative activity against human MDA-MB-231 cells assessed as inhibition of cell proliferation measured after 48 hrs by CCK8 assay; format: functional, cell-based; details: MDA-MB-231, 48 h
Jurkat = test: Antiproliferative activity against human Jurkat cells assessed as inhibition of cell proliferation measured after 48 hrs by CCK8 assay; format: functional, cell-based
MCF7 = test: Antiproliferative activity against human MCF7 cells assessed as inhibition of cell proliferation measured after 48 hrs by CCK8 assay; format: functional, cell-based; details: MCF7, 48 h
[3] = Cytotoxicity against human L02 cells assessed as inhibition of cell proliferation measured after 48 hrs by CCK8 assay; format: cell-based
MDA-MB-231 [4] = test: Cell cycle arrest in human MDA-MB-231 cells assessed as accumulation at G0/G1 phase at 4 uM measured after 48 hrs by propidium iodide staining based flow cytometry (reference value: 57.65%); format: functional
MDA-MB-231 [5] = test: Cell cycle arrest in human MDA-MB-231 cells assessed as accumulation at S phase at 4 uM measured after 48 hrs by propidium iodide staining based flow cytometry (reference value: 26.45%); format: functional
MDA-MB-231 [6] = test: Cell cycle arrest in human MDA-MB-231 cells assessed as accumulation at G2/M phase at 4 uM measured after 48 hrs by propidium iodide staining based flow cytometry (reference value: 15.9%); format: functional
MDA-MB-231 [7] = test: Cell cycle arrest in human MDA-MB-231 cells assessed as accumulation at G0/G1 phase at 8 uM measured after 48 hrs by propidium iodide staining based flow cytometry (reference value: 57.65%); format: functional
MDA-MB-231 [8] = test: Cell cycle arrest in human MDA-MB-231 cells assessed as accumulation at G2/M phase at 8 uM measured after 48 hrs by propidium iodide staining based flow cytometry (reference value: 15.9%); format: functional
MDA-MB-231 [9] = test: Cell cycle arrest in human MDA-MB-231 cells assessed as accumulation at G0/G1 phase at 12 uM measured after 48 hrs by propidium iodide staining based flow cytometry (reference value: 57.65%); format: functional
MDA-MB-231 [10] = test: Cell cycle arrest in human MDA-MB-231 cells assessed as accumulation at G2/M phase at 12 uM measured after 48 hrs by propidium iodide staining based flow cytometry (reference value: 15.9%); format: functional
MDA-MB-231 [11] = test: Induction of apoptosis in human MDA-MB-231 cells assessed as early apoptotic cells at 4 uM measured after 48 hrs by Annexin V-FITC/propidium iodide staining based flow cytometry (0.877%); format: functional
MDA-MB-231 [12] = test: Induction of apoptosis in human MDA-MB-231 cells assessed as late apoptotic cells at 4 uM measured after 48 hrs by Annexin V-FITC/propidium iodide staining based flow cytometry (2.78%); format: functional
MDA-MB-231 [13] = test: Induction of apoptosis in human MDA-MB-231 cells assessed as viable cells at 8 uM measured after 48 hrs by Annexin V-FITC/propidium iodide staining based flow cytometry (95.8%); format: functional; details: MDA-MB-231, 48 h, read-out: Activity
MDA-MB-231 [14] = test: Induction of apoptosis in human MDA-MB-231 cells assessed as early apoptotic cells at 8 uM measured after 48 hrs by Annexin V-FITC/propidium iodide staining based flow cytometry (0.877%); format: functional
MDA-MB-231 [15] = test: Induction of apoptosis in human MDA-MB-231 cells assessed as early apoptotic cells at 12 uM measured after 48 hrs by Annexin V-FITC/propidium iodide staining based flow cytometry (0.877%); format: functional
MDA-MB-231 [16] = test: Induction of apoptosis in human MDA-MB-231 cells assessed as late apoptotic cells at 12 uM measured after 48 hrs by Annexin V-FITC/propidium iodide staining based flow cytometry (2.78%); format: functional
MDA-MB-231 [17] = test: Induction of apoptosis in human MDA-MB-231 cells assessed as necrotic cells at 12 uM measured after 48 hrs by Annexin V-FITC/propidium iodide staining based flow cytometry (0.498%); format: functional
CDK9/cyclin T1 = CDK9/cyclin T1 (Homo sapiens, UniProt P50750); test: Binding affinity to recombinant full-length GFP-fused CDK9/His-tagged cyclin T1 (unknown origin) expressed in HEK293T cells measured after 30 mins by microscale thermophoresis method; set-up: species or system HEK-293T
CDK6/cyclin D3 [18] = target: T1, CDK6/cyclin D3; test: Binding affinity to recombinant full-length GFP-fused CDK6/His-tagged cyclin D3 (unknown origin) expressed in HEK293T cells measured after 30 mins by microscale thermophoresis method; set-up: species or system HEK-293T
[19] = Thermodynamic equilibrium solubility in normal saline by HPLC-based shake flask method; format: physicochemical; details: read-out: Therm_solubility
[20] = Octanol-water partition coefficient, log P of the compound by HPLC-based shake flask method; format: physicochemical
[21] = Apparent permeability in human Caco2 cells measured after 90 mins by LC-MS/MS analysis; format: ADME, cell-based; details: Caco-2
[22] = Clearance in human hepatocytes assessed per million cells by LC-MS/MS analysis; format: ADME, cell-based, Hepatocyte; details: read-out: CLH
[23] = Stability in human hepatocytes assessed as parent compound remaining after 120 mins by LC-MS/MS analysis; format: ADME, cell-based, Hepatocyte; details: read-out: Stability
[24] = Half life in mouse hepatocytes by LC-MS/MS analysis; format: ADME, cell-based, Hepatocyte
[25] = Clearance in mouse hepatocytes assessed per million cells by LC-MS/MS analysis; format: ADME, cell-based, Hepatocyte; details: read-out: CLH
[26] = Stability in mouse hepatocytes assessed as parent compound remaining after 120 mins by LC-MS/MS analysis; format: ADME, cell-based, Hepatocyte; details: read-out: Stability
[27] = Half life in Sprague-Dawley rat at 2 mg/kg, iv by LC-MS/MS analysis; format: ADME, organism-based; details: in vivo
[28] = Cmax in Sprague-Dawley rat at 2 mg/kg, iv by LC-MS/MS analysis; format: ADME, organism-based; set-up: dose 2 mg/kg, route intravenous; details: in vivo
[29] = AUC (0 to infinity) in Sprague-Dawley rat at 2 mg/kg, iv by LC-MS/MS analysis; format: ADME, organism-based; set-up: dose 2 mg/kg, route intravenous, time infinity; details: in vivo
[30] = Half life in Sprague-Dawley rat at 10 mg/kg, po by LC-MS/MS analysis; format: ADME, organism-based; details: in vivo
[31] = Cmax in Sprague-Dawley rat at 10 mg/kg, po by LC-MS/MS analysis; format: ADME, organism-based; set-up: dose 10 mg/kg, route oral; details: in vivo
[32] = AUC (0 to infinity) in Sprague-Dawley rat at 10 mg/kg, po by LC-MS/MS analysis; format: ADME, organism-based; set-up: dose 10 mg/kg, time infinity, route oral; details: in vivo
[33] = Clearance in Sprague-Dawley rat at 10 mg/kg, po by LC-MS/MS analysis; format: ADME, organism-based; details: in vivo
[34] = Oral bioavailability in Sprague-Dawley rat at 10 mg/kg by LC-MS/MS analysis; format: ADME, organism-based; details: in vivo
[35] = Toxicity in ICR mouse assessed as toxic reaction at 500 mg/kg, po administered as single dose measured for 7 days; format: organism-based; details: in vivo, 168 h
[36] = Toxicity in human MDA-MB-231 cells xenografted BALB/c nu/nu mouse assessed as body weight loss at 22.5 to 90 mg/kg, po administered once daily for 3 weeks and measured at 3 days interval during compound dosing; format: organism-based; details: in vivo
[37] = target: Cyclin-dependent kinase 5/CDK5 activator 1 (Homo sapiens, UniProt Q00535); details: Sf9, human, read-out: INH
CDK9/Cyclin K = CDK9/Cyclin K (Homo sapiens, UniProt P50750); test: biochemical
Chain of CDK9/Cyclin K (P50750 whole entry): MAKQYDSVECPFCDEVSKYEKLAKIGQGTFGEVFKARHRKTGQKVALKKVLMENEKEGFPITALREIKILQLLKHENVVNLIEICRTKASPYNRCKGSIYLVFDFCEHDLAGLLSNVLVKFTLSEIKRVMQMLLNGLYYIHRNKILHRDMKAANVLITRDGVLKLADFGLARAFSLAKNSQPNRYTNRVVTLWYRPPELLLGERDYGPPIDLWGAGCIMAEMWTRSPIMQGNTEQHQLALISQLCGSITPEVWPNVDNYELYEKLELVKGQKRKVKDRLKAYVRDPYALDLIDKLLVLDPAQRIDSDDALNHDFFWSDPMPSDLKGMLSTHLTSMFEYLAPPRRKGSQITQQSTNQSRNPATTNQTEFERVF
Chain of CDK9/Cyclin K (O75909 whole entry, further chain): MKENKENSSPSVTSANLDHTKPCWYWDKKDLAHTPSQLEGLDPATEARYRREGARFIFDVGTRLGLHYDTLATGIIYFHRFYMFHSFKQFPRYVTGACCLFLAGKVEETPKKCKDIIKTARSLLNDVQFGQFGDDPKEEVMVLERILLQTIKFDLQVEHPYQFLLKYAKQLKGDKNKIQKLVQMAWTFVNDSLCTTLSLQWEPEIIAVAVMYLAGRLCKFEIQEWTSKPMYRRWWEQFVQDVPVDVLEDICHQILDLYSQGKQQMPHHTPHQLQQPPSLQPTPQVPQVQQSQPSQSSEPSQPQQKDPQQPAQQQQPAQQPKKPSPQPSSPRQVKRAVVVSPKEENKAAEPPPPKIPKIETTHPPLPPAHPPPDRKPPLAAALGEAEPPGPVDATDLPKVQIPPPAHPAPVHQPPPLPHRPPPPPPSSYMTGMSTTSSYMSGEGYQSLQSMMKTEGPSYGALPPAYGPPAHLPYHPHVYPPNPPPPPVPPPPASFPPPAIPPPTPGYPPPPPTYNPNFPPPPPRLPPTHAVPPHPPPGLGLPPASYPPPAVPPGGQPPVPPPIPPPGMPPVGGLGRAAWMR

T1 sequence (P30281 whole entry): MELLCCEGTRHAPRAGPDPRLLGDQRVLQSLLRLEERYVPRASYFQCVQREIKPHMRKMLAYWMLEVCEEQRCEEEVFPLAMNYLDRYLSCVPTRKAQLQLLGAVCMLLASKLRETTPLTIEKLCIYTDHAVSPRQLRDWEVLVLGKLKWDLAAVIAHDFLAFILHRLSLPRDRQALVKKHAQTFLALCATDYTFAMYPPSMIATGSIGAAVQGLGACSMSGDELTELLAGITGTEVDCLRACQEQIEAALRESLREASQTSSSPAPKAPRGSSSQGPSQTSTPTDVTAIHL
T1 sequence (Q00534 whole entry): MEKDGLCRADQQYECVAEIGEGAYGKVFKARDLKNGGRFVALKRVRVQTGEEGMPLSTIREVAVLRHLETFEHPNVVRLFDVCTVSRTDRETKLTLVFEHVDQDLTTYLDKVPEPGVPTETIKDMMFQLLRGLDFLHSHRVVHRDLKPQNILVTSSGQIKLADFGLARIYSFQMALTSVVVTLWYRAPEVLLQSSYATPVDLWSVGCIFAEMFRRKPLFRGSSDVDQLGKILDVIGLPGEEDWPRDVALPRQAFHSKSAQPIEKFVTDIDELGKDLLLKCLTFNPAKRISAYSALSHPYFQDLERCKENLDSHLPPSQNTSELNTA
Chain of Cyclin-dependent kinase 5/CDK5 activator 1 (Q00535 whole entry): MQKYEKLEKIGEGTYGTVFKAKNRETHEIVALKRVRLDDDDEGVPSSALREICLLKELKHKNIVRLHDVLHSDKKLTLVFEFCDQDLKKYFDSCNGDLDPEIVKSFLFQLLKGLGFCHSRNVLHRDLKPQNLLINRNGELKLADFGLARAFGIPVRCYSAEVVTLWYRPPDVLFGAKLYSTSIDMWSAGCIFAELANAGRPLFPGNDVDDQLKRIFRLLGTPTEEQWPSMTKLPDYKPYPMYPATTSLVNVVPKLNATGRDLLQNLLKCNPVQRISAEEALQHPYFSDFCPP
Chain of Cyclin-dependent kinase 5/CDK5 activator 1 (Q15078 whole entry, further chain): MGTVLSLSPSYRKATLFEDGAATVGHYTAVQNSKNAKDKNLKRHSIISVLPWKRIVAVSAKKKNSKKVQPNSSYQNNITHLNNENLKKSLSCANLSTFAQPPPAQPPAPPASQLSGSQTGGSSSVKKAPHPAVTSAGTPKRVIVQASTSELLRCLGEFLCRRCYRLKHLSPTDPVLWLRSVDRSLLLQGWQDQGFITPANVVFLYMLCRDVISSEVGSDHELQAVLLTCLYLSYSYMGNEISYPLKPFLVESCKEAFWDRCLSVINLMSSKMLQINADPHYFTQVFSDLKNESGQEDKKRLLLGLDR
Chain of CDK9/cyclin T1 (O60563 whole entry, the tested form may be a part): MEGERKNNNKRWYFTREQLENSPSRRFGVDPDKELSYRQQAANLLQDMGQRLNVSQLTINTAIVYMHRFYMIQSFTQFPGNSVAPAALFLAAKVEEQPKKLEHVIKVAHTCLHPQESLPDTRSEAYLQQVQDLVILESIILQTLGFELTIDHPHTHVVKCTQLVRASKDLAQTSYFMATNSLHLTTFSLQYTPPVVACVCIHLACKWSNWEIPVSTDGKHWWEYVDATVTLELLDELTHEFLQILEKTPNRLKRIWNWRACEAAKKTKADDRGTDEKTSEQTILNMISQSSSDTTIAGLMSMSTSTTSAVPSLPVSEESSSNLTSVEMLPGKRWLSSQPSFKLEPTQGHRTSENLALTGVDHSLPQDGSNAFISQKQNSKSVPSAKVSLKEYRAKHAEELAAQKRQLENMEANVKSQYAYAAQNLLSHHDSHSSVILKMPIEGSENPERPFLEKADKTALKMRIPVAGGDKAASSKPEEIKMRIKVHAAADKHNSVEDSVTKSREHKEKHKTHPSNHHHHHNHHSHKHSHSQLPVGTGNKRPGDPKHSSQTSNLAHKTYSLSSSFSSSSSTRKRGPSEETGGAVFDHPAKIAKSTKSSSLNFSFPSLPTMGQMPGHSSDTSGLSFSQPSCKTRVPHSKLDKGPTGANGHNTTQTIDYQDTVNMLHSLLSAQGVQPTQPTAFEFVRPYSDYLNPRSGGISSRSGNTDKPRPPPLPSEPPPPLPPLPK
Chain of CDK9/cyclin T1 (P50750 whole entry, the tested form may be a part): as the sequence (P50750 whole entry) above

Q: For `CC(=O)Nc1cccc(Nc2nc(Nc3ccc(N4CCN(C)CC4)cn3)ncc2Cl)c1`, which IC50 (CDK6/cyclin D3 [1]) is on record?
A: 40.5 nM

Q: What about the IC50 (CDK2/Cyclin A2) of the same compound?
A: > 10000 nM

Q: What about the IC50 (MDA-MB-231 [2]) of the same compound?
A: 4010 to 8080 nM

Q: What about the IC50 (Jurkat) of the same compound?
A: 4010 to 8080 nM

Q: And the IC50 (MCF7)?
A: 4010 to 8080 nM

Q: What about the GI50 at 48 h [3] of the same compound?
A: > 100000 nM

Q: And the Activity (MDA-MB-231 [4])?
A: 71.85%

Q: And the Activity (MDA-MB-231 [5])?
A: 18.97%

Q: What about the Activity (MDA-MB-231 [6]) of the same compound?
A: 9.18%

Q: And the Activity (MDA-MB-231 [7])?
A: 77.51%

Q: And the Activity (MDA-MB-231 [8])?
A: 8.13%

Q: What about the Activity (MDA-MB-231 [9]) of the same compound?
A: 50.5%

Q: What about the Activity (MDA-MB-231 [10]) of the same compound?
A: 34.27%

Q: What about the Activity (MDA-MB-231 [11]) of the same compound?
A: 2.08%

Q: And the Activity (MDA-MB-231 [12])?
A: 3.15%

Q: And the viability at 8 µM (MDA-MB-231 [13])?
A: 87.5%

Q: What about the Activity (MDA-MB-231 [14]) of the same compound?
A: 5.06%

Q: What about the Activity (MDA-MB-231 [15]) of the same compound?
A: 16.4%

Q: And the Activity (MDA-MB-231 [16])?
A: 26.4%

Q: What about the Activity (MDA-MB-231 [17]) of the same compound?
A: 2.24%

Q: What about the Kd (CDK9/cyclin T1) of the same compound?
A: 30 nM

Q: What about the Kd (CDK6/cyclin D3 [18]) of the same compound?
A: 71 nM

Q: What about the solubility thermodynamic [19] of the same compound?
A: 214 µg/mL (≈ 472 µM)

Q: What about the logP [20] of the same compound?
A: 1.23

Q: What about the Papp at 1.5 h [21] of the same compound?
A: 1.7 ×10⁻⁶ cm/s

Q: And the hepatocyte CLint [22]?
A: 7.5 µL/min/1e6 cells

Q: And the remaining at 2 h [23]?
A: 40.4%

Q: What about the half-life [24] of the same compound?
A: 0.653 h

Q: And the hepatocyte CLint [25]?
A: 17.7 µL/min/1e6 cells

Q: And the remaining at 2 h [26]?
A: 12%

Q: And the half-life [27]?
A: 1.76 h

Q: And the Cmax [28]?
A: 995 ng/mL

Q: And the AUC(0-inf) [29]?
A: 641 ng·h/mL

Q: And the half-life [30]?
A: 3.24 h

Q: What about the Cmax [31] of the same compound?
A: 101 ng/mL

Q: And the AUC(0-inf) [32]?
A: 926 ng·h/mL

Q: And the CL/F [33]?
A: 180 mL/min/kg

Q: What about the bioavailability [34] of the same compound?
A: 28.9%

Q: What about the Activity [35] of the same compound?
A: Non-Toxic

Q: What about the Activity [36] of the same compound?
A: Non-Toxic

Q: And the inhibition at 1 µM [37]?
A: < 6.6%

Q: What about the IC50 (CDK9/Cyclin K) of the same compound?
A: 39.5 nM
